Common to all, as to assay: MIC, standard microtiter broth serial dilution test
What all share (format): cell-based

One assay relates to H. influenzae ATCC 0529. Particulars: Haemophilus influenzae, ATCC0529.
For another assay, the system named is E. faecalis ATCC 0004. The conditions noted are these: Enterococcus faecalis, ATCC0004.
For assay [1], the system named is S. aureus Smith ATCC 0329. Particulars: Staphylococcus aureus, ATCC0329.
The next assay concerns M. catarrhalis ATCC 0324. Particulars: Moraxella catarrhalis, ATCC0324.
The test system of another assay is S. pyogenes 0542. Particulars: Streptococcus pyogenes.
The next assay concerns S. pneumoniae 0541. Particulars: Streptococcus pneumoniae.

For `CC[C@H]1OC(=O)[C@H](C)[C@@H](O[C@H]2C[C@@](C)(OC)[C@@H](OC(=O)CCNCCOCCOCC#Cc3ccc4c(c3)c(=O)c(C(=O)O)cn4CC)[C@H](C)O2)[C@H](C)[C@@H](O[C@@H]2O[C@H](C)C[C@H](N(C)C)[C@H]2O)[C@](C)(O)C[C@@H](C)CN(C)[C@H](C)[C@@H](O)[C@]1(C)O` [Example 62, 4″-O-[3-(2-{2-[3-(3-Carboxy-1-ethyl-4-oxo-1,4-dihydro-quinolin-6-yl)-prop-2-ynyloxy]-ethoxy}-ethylamino)-propionyl]-azithromycin], the MIC with H. influenzae ATCC 0529 is ≤ 2 µg/mL; against E. faecalis ATCC 0004, ≤ 1 µg/mL; in assay [1], ≤ 1 µg/mL; against M. catarrhalis ATCC 0324, ≤ 2 µg/mL; against S. pyogenes 0542 it was ≤ 1 µg/mL; in the assay with S. pneumoniae 0541, ≤ 1 µg/mL.
Consider `CC[C@H]1OC(=O)[C@H](C)[C@@H](OC2C[C@@](C)(OC)[C@@H](OC(=O)CCNCCOCC#Cc3ccc4c(c3)c(=O)c(C(=O)O)cn4CC)[C@H](C)O2)[C@H](C)[C@@H](OC2O[C@H](C)C[C@H](N(C)C)[C@H]2O)[C@](C)(O)C[C@@H](C)CN(C)[C@H](C)[C@@H](OC)[C@]1(C)O` (some centres unmarked) [Example 23, 11-O-Methyl-4″-O-(3-{2-[3-(3-Carboxy-1-ethyl-4-oxo-1,4-dihydro-quinolin-6-yl)-prop-2-ynyloxy]-ethylamino}-propionyl)-azithromycin], for which the MIC is ≤ 2 µg/mL against H. influenzae ATCC 0529; ≤ 1 µg/mL with E. faecalis ATCC 0004; ≤ 1 µg/mL in assay [1]; ≤ 2 µg/mL in the assay on M. catarrhalis ATCC 0324; ≤ 1 µg/mL against S. pyogenes 0542; ≤ 1 µg/mL against S. pneumoniae 0541.
`CC[C@H]1OC(=O)[C@H](C)[C@@H](O[C@H]2C[C@@](C)(OC)[C@@H](OC(=O)CCN3CCN(CCCc4ccc5c(c4)c(=O)c(C(=O)O)cn5CC)CC3)[C@H](C)O2)[C@H](C)[C@@H](O[C@@H]2O[C@H](C)C[C@H](N(C)C)[C@H]2O)[C@](C)(O)C[C@@H](C)CN(C)[C@H](C)[C@@H](OC)[C@]1(C)O` [Example 5]: the MIC (with E. faecalis ATCC 0004; in assay [1]; in the assay with S. pyogenes 0542; against S. pneumoniae 0541) was ≤ 1 µg/mL each time.
Turning to `CC[C@H]1OC(=O)[C@H](C)[C@@H](O[C@H]2C[C@@](C)(OC)[C@@H](OC(=O)CCN3CCN(CC#Cc4ccc5c(c4)c(=O)c(C(=O)O)cn5CC)CC3)[C@H](C)O2)[C@H](C)[C@@H](O[C@@H]2O[C@H](C)C[C@H](N(C)C)[C@H]2O)[C@](C)(O)C[C@@H](C)CN(C)[C@H](C)[C@@H](OC)[C@]1(C)O` [Example 4], the MIC in the assay on H. influenzae ATCC 0529 is ≤ 2 µg/mL; with E. faecalis ATCC 0004, ≤ 1 µg/mL; in assay [1] it was ≤ 1 µg/mL; in the assay on M. catarrhalis ATCC 0324, ≤ 2 µg/mL; against S. pyogenes 0542 it was ≤ 1 µg/mL; with S. pneumoniae 0541, ≤ 1 µg/mL.
As to `CC[C@H]1OC(=O)[C@H](C)[C@@H](O[C@H]2C[C@@](C)(OC)[C@@H](OC(=O)CCOCCOCCNc3cc4c(=O)c(C(=O)O)cn(C5CC5)c4cc3Cl)[C@H](C)O2)[C@H](C)[C@@H](O[C@@H]2O[C@H](C)C[C@H](N(C)C)[C@H]2O)[C@](C)(OC)C[C@@H](C)C(=O)[C@H](C)[C@H]2NC(=O)O[C@@]21C` [Example 26, 4″-O-(3-{2-[2-(3-Carboxy-7-chloro-1-cyclopropyl-4-oxo-1,4-dihydro-quinolin-6-ylamino)-ethoxy]-ethoxy}-propionyl)-6-O-methyl-erythromycin A 11,12-cyclic carbamate], the MIC in the assay with H. influenzae ATCC 0529 was ≤ 2 µg/mL; in the assay with E. faecalis ATCC 0004, ≤ 1 µg/mL; in assay [1] it was ≤ 1 µg/mL; against M. catarrhalis ATCC 0324, ≤ 2 µg/mL; in the assay on S. pyogenes 0542 it was ≤ 1 µg/mL; against S. pneumoniae 0541, ≤ 1 µg/mL.
On to `CCOC(=O)c1cn(CC)c2ccc(C#CCN3CCN(CCC(=O)O[C@H]4[C@H](C)OC(O[C@H]5[C@H](C)[C@@H](OC6O[C@H](C)C[C@H](N(C)C)[C@H]6O)[C@](C)(OC)C[C@@H](C)C(=O)[C@H](C)[C@@H](O)[C@](C)(O)[C@@H](CC)OC(=O)[C@@H]5C)C[C@@]4(C)OC)CC3)cc2c1=O` (some centres unmarked) [Example 3, 4″-O-(3-{4-[3-(3-Ethoxycarbonyl-1-ethyl-4-oxo-1,4-dihydro-quinolin-6-yl)-prop-2-ynyl]-piperazin-1-yl}-propionyl)-6-O-methyl-erythromycin A], for which the MIC in the assay with H. influenzae ATCC 0529 was ≤ 2 µg/mL; in the assay with E. faecalis ATCC 0004, ≤ 1 µg/mL; in assay [1], ≤ 1 µg/mL; against M. catarrhalis ATCC 0324, ≤ 2 µg/mL; against S. pyogenes 0542, ≤ 1 µg/mL; with S. pneumoniae 0541, ≤ 1 µg/mL.
On to `CC[C@H]1OC(=O)[C@H](C)[C@@H](OC2C[C@@](C)(OC)[C@@H](OC(=O)CCOCCOCCOc3ccc4c(=O)c(C(=O)O)cn(C5CC5)c4c3)[C@H](C)O2)[C@H](C)[C@@H](O[C@@H]2O[C@H](C)C[C@H](N(C)C)[C@H]2O)[C@](C)(OC)C[C@@H](C)C(=O)[C@H](C)[C@@H](O)[C@]1(C)O` (some centres unmarked) [Example 38, 4″-O-(3-{2-[2-(3-Carboxy-1-cyclopropyl-4-oxo-1,4-dihydro-quinolin-7-yloxy)-ethoxy]-ethoxy}-propionyl)-6-O-methyl-erythromycin A], for which the MIC against H. influenzae ATCC 0529 was ≤ 2 µg/mL; in the assay with E. faecalis ATCC 0004, ≤ 1 µg/mL; in assay [1], ≤ 1 µg/mL; with M. catarrhalis ATCC 0324 it was ≤ 2 µg/mL; against S. pyogenes 0542 it was ≤ 1 µg/mL; against S. pneumoniae 0541 it was ≤ 1 µg/mL.
`CC[C@H]1OC(=O)[C@H](C)[C@@H](O[C@H]2C[C@@](C)(OC)[C@@H](OC(=O)CCOCCOCCNc3cc4c(=O)c(C(=O)O)cn(C5CC5)c4cc3Cl)[C@H](C)O2)[C@H](C)[C@@H](O[C@@H]2O[C@H](C)C[C@H](N(C)C)[C@H]2O)[C@](C)(OC)C[C@@H](C)C(=O)[C@H](C)[C@@H](O)[C@]1(C)O` [Example 7, 4″-O-(3-{2-[2-(3-Carboxy-7-chloro-1-cyclopropyl-4-oxo-1,4-dihydro-quinolin-6-ylamino)-ethoxy]-ethoxy}-propionyl)-6-O-methyl-erythromycin A]: the MIC (against E. faecalis ATCC 0004; in assay [1]; with S. pyogenes 0542; against S. pneumoniae 0541) was ≤ 1 µg/mL throughout.
For `CC[C@H]1OC(=O)[C@H](C)[C@@H](OC2C[C@@](C)(OC)[C@@H](OC(=O)CNC(=O)CCOCCNc3c(F)cc4c(=O)c(C(=O)O)cn(C5CC5)c4c3OC)[C@H](C)O2)[C@H](C)[C@@H](O[C@@H]2O[C@H](C)C[C@H](N(C)C)[C@H]2O)[C@](C)(O)C[C@@H](C)CN(C)[C@H](C)[C@@H]2OC(=O)O[C@]12C` (some centres unmarked) [Example 14, 4″-O-(2-{3-[2-(3-Carboxy-6-fluoro-1-cyclopropyl-8-methoxy-4-oxo-1,4-dihydro-quinolin-7-ylamino)-ethoxy]-propionylamino}-acetyl)-azithromycin 11,12-cyclic carbonate], the MIC in the assay with H. influenzae ATCC 0529 is ≤ 2 µg/mL; against E. faecalis ATCC 0004, ≤ 1 µg/mL; in assay [1], ≤ 1 µg/mL; in the assay with M. catarrhalis ATCC 0324, ≤ 2 µg/mL; in the assay on S. pyogenes 0542 it was ≤ 1 µg/mL; in the assay with S. pneumoniae 0541, ≤ 1 µg/mL.
For the compound `CC[C@H]1OC(=O)[C@H](C)[C@@H](O[C@H]2C[C@@](C)(OC)[C@@H](OC(=O)CCOCCOCCNc3cc4c(=O)c(C(=O)O)cn(C5CC5)c4cc3N(C)C)[C@H](C)O2)[C@H](C)[C@@H](OC2O[C@H](C)C[C@H](N(C)C)[C@H]2O)[C@](C)(O)C[C@@H](C)CN(C)[C@H](C)[C@@H](O)[C@]1(C)O` (some centres unmarked) [Example 48, 4″-O-(3-{2-[2-(3-Carboxy-1-cyclopropyl-7-dimethylamino-4-oxo-1,4-dihydro-quinolin-6-ylamino)-ethoxy]-ethoxy}-propionyl)azithromycin], the MIC was ≤ 2 µg/mL against H. influenzae ATCC 0529; ≤ 1 µg/mL in the assay on E. faecalis ATCC 0004; ≤ 1 µg/mL in assay [1]; ≤ 2 µg/mL against M. catarrhalis ATCC 0324; ≤ 1 µg/mL in the assay with S. pyogenes 0542; ≤ 1 µg/mL with S. pneumoniae 0541.

Source of the values: US20080255060A1, “Ester Linked Macrolides Useful For The Treatment of Microbial Infections” (priority 2004, published 2008).
